Results on 15 molecules are retold here after US5789386A, “Fluorine-containing anthracycline derivatives having hydroxyl groups(s) mono- or di-o-aminoalkanoylated in the sugar moiety thereof” (priority 1995, dated 1998).

Values after ≈ are worked out from the molar mass of the structure shown. Like-named read-outs stand apart in the source and are kept apart here.

One experiment deals with Leukemia L-1210 cells. Nature of the experiment: Antitumor test against leukemia L-1210 in CDF1 mice (T/C, %). As to conditions: for antitumor activities (in words): compared with FT-DM, FT-ADM, daunomycin, adriamycin or another test compound; for % Increase in life-span (T/C, %) / mice cured and surviving for 60 days or longer / mice tested: 9 days. The class given is in vivo, mouse (CDF1). Here is the method:
Thus, to evaluate the antitumor effects of the new compounds according to the first aspect of this invention against experimental tumors in animals, CDF1 mice (four mice per group) were intraperitoneally transplanted with cells of Leukemia L-1210 at an amount of 1×10^5 cells/mouse. Since an elapsed time of 24 hours from the transplantation of the leukemia cells, a test compound according to this invention was administered intraperitoneally to the mice under test for 9 consecutive days once per day. […] While, mice of the control group (the untreated group) were administered with only physiological saline after the transplantation of the L-1210 cells. During the observation period, the numbers of the surviving mice in the treated group and in the control group were counted, and the mean survival days of mice in the treated group and in the control group were then calculated. From the mean survival day (C) of the untreated mice of the control group and the mean survival day (T) of the treated mice of the treated group, there were evaluated percentages (%) of the increase in the life-span of the treated mice, as T/C %. For a comparison purpose, 7-O-(2,6-dideoxy-2-fluoro-α-L-talopyranosyl)daunomycinone (abbreviation: FT-DM); 7-O-(2,6-dideoxy-2-fluoro-α-L-talopyranosyl)adriamycinone(abbreviation: FT-ADM); and adriamycin were also tested in the same manner as above. Incidentally, the mean survival day of mice of the control group (the untreated group) was amounting to 8 to 9 days, and the mean survival day of mice of the comparative groups having received the administration of adriamycin was varying dependently on the dosage of adriamycin.
Notes; Asterisks (*) indicate that development of toxicity such as
toxicityrelated death or a body weight loss was observed on the
corresponding mice tested.

Experiment [1] concerns mouse leukemia, P388 cells. The experiment is described as follows: In vitro growth inhibition of P388 cells, 72 hours. The class given is cell-based.
Experiment [2] deals with adriamycin-resistant P388 cells (P388/ADR). The experiment is described as follows: In vitro growth inhibition of adriamycin-resistant P388 cells (P388/ADR), 72 hours. As to conditions: Mus musculus, 72 hours, test compounds as trifluoroacetate, read-out: IC50. The class given is cell-based.
[3] abbreviates: 0.3 mg/kg/day i.p., ">" = at least one of four mice survived 60 days or longer.
Setting [4] is: 0.6 mg/kg/day i.p., ">" = at least one of four mice survived 60 days or longer.
[5] abbreviates: 1.25 mg/kg/day i.p., ">" = at least one of four mice survived 60 days or longer.
Where [6] appears, read: 2.5 mg/kg/day i.p., ">" = at least one of four mice survived 60 days or longer.
Setting [7] is: 5 mg/kg/day i.p., ">" = at least one of four mice survived 60 days or longer.
Where [8] appears, read: P388, 72 hours, test compounds as trifluoroacetate, read-out: IC50.

Consider `COc1cccc2c1C(=O)c1c(O)c3c(c(O)c1C2=O)C[C@@](O)(C(=O)CO)C[C@@H]3O[C@@H]1O[C@@H](C)[C@@H](O)[C@@H](OC(=O)[C@H](C)N)[C@H]1F` [Compound 8b, 7-O-(3-O-L-alanyl-2,6-dideoxy-2-fluoro-α-L-talopyranosyl)adriamycinone], for which the “antitumor activities (in words)” value in the experiment on Leukemia L-1210 cells is given as “remarkably improved antitumor activities in comparison with those of the parent compound, FT-ADM”.

Consider `COc1cccc2c1C(=O)c1c(O)c3c(c(O)c1C2=O)C[C@@](O)(C(=O)CO)C[C@@H]3O[C@@H]1O[C@@H](C)[C@@H](OC(=O)[C@H](C)N)[C@@H](O)[C@H]1F` [Compound 9b, 7-O-(4-O-L-alanyl-2,6-dideoxy-2-fluoro-α-L-talopyranosyl)adriamycinone], for which the “antitumor activities (in words)” value in the experiment on Leukemia L-1210 cells was “remarkably improved antitumor activities in comparison with those of the parent compound, FT-ADM”.

In the case of `COc1cccc2c1C(=O)c1c(O)c3c(c(O)c1C2=O)C[C@@](O)(C(=O)CO)C[C@@H]3O[C@@H]1O[C@@H](C)[C@@H](OC(=O)CN)[C@@H](OC(=O)CN)[C@H]1F` [Compound 11a, 7-O-(2,6-dideoxy-2-fluoro-3,4-di-O-glycyl-α-L-talopyranosyl)adriamycinone], the half-inhibitory concentration (IC50) (usually the point on the concentration scale where inhibition reaches its midpoint) is less than 0.0098 µg/mL in experiment [1] (P388, 72 h) and 0.32 µg/mL (≈ 0.473 µM) in experiment [2]. The “% Increase in life-span (T/C, %)” value in the experiment on Leukemia L-1210 cells (0.15 mg/kg/day i.p.) is given as 111%; in the experiment on Leukemia L-1210 cells (setting [3]), 125%; in the experiment on Leukemia L-1210 cells (setting [4]), 170%; with Leukemia L-1210 cells (setting [5]), 321%; with Leukemia L-1210 cells (setting [6]) it was more than 430%; with Leukemia L-1210 cells (setting [7]) it was more than 518%. Moreover, the “mice cured and surviving for 60 days or longer / mice tested” value in the experiment with Leukemia L-1210 cells (2.5 mg/kg/day i.p.) is listed as 1/4; in the experiment with Leukemia L-1210 cells (5 mg/kg/day i.p.), 2/4.

As to `COc1cccc2c1C(=O)c1c(O)c3c(c(O)c1C2=O)C[C@@](O)(C(=O)CO)C[C@@H]3O[C@@H]1O[C@@H](C)[C@@H](OC(=O)[C@H](C)N)[C@@H](OC(=O)[C@H](C)N)[C@H]1F` [Compound 11b, 7-O-(3,4-di-O-L-alanyl-2,6-dideoxy-2-fluoro-α-L-talopyranosyl)adriamycinone], the IC50 is less than 0.0098 µg/mL in experiment [1] (P388, 72 h) and 0.31 µg/mL (≈ 0.44 µM) in experiment [2]. Besides, the “% Increase in life-span (T/C, %)” value in the experiment with Leukemia L-1210 cells (0.15 mg/kg/day i.p.) is 115%; with Leukemia L-1210 cells (setting [3]), 144%; with Leukemia L-1210 cells (setting [4]), more than 361%; with Leukemia L-1210 cells (setting [5]), more than 407%; in the experiment on Leukemia L-1210 cells (setting [6]), more than 666%; in the experiment on Leukemia L-1210 cells (setting [7]), more than 502%. Also, the “mice cured and surviving for 60 days or longer / mice tested” value in the experiment with Leukemia L-1210 cells (0.6 mg/kg/day i.p.) is reported as 1/4; with Leukemia L-1210 cells (1.25 mg/kg/day i.p.), 1/4; in the experiment on Leukemia L-1210 cells (2.5 mg/kg/day i.p.), 2/4; in the experiment on Leukemia L-1210 cells (5 mg/kg/day i.p.) it was 2/4. In the experiment with Leukemia L-1210 cells, the “antitumor activities (in words)” value was “a little inferior to the antitumor activities of said mixture of Compounds 8b and 9b but are yet considerably high antiumor activities”.

On to `COc1cccc2c1C(=O)c1c(O)c3c(c(O)c1C2=O)C[C@@](O)(C(=O)CO)C[C@@H]3O[C@@H]1O[C@@H](C)[C@@H](OC(=O)[C@@H](N)Cc2ccccc2)[C@@H](OC(=O)[C@@H](N)Cc2ccccc2)[C@H]1F` [Compound 11c, 7-O-(2,6-dideoxy-2-fluoro-3,4-di-O-L-phenylalanyl-α-L-talopyranosyl)adriamycinone], for which the IC50 was determined as 0.026 µg/mL (≈ 0.0303 µM) in experiment [1] (setting [8]) and 0.14 µg/mL (≈ 0.163 µM) in experiment [2]. Further, the “% Increase in life-span (T/C, %)” value in the experiment on Leukemia L-1210 cells (0.15 mg/kg/day i.p.) is 123%; in the experiment with Leukemia L-1210 cells (setting [3]) it was 130%; in the experiment on Leukemia L-1210 cells (setting [4]), 143%; in the experiment with Leukemia L-1210 cells (setting [5]), 170%; in the experiment with Leukemia L-1210 cells (setting [6]), 177%; with Leukemia L-1210 cells (setting [7]), 253%.

As for `COc1cccc2c1C(=O)c1c(O)c3c(c(O)c1C2=O)C[C@@](O)(C(=O)CO)C[C@@H]3O[C@@H]1O[C@@H](C)[C@@H](OC(=O)[C@@H](N)C(C)C)[C@@H](OC(=O)[C@@H](N)C(C)C)[C@H]1F` [Compound 11d, 7-O-(2,6-dideoxy-2-fluoro-3,4-di-O-L-valyl-α-L-talopyranosyl)adriamycinone], the IC50 in experiment [1] (P388, 72 h) was less than 0.0098 µg/mL; in experiment [2], 0.32 µg/mL (≈ 0.421 µM).

On to `COc1cccc2c1C(=O)c1c(O)c3c(c(O)c1C2=O)C[C@@](O)(C(=O)CO)C[C@@H]3O[C@@H]1O[C@@H](C)[C@@H](OC(=O)[C@@H](N)CC(C)C)[C@@H](OC(=O)[C@@H](N)CC(C)C)[C@H]1F` [Compound 11e, 7-O-(2,6-dideoxy-2-fluoro-3,4-di-O-L-leucyl-α-L-talopyranosyl)adriamycinone], for which the IC50 in experiment [1] (setting [8]) turned out to be 0.032 µg/mL (≈ 0.0406 µM); in experiment [2], 0.27 µg/mL (≈ 0.342 µM).

For the molecule `COc1cccc2c1C(=O)c1c(O)c3c(c(O)c1C2=O)C[C@@](O)(C(=O)CO)C[C@@H]3O[C@@H]1O[C@@H](C(F)(F)F)[C@@H](OC(=O)CN)[C@@H](OC(=O)CN)[C@H]1F` [Compound 18, 7-O-(2,6-dideoxy-2,6,6,6-tetrafluoro-3,4-di-O-glycyl-α-L-talopyranosyl)adriamycinone], the IC50 in experiment [1] (setting [8]) is less than 0.0098 µg/mL; in experiment [2], 0.28 µg/mL (≈ 0.383 µM).

For `COc1cccc2c1C(=O)c1c(O)c3c(c(O)c1C2=O)C[C@@](O)(C(=O)CO)C[C@@H]3O[C@H]1C[C@H](OC(=O)CN)[C@H](OC(=O)CN)[C@H](C(F)(F)F)O1` [Compound 25, 7-O-(2,6-dideoxy-6,6,6-trifluoro-3,4-di-O-glycyl-α-L-lyxo-hexopryranosyl)adriamycinone], the IC50 in experiment [1] (P388, 72 h) was less than 0.0098 µg/mL.

Consider `COc1cccc2c1C(=O)c1c(O)c3c(c(O)c1C2=O)C[C@@](O)(C(=O)CO)C[C@@H]3O[C@@H]1O[C@@H](C(F)(F)F)[C@@H](OC(=O)[C@H](C)N)[C@@H](OC(=O)[C@H](C)N)[C@H]1F` [Compound 31, 7-O-(3,4-di-O-L-alanyl-2,6-dideoxy-2,6,6,6-tetrafluoro-α-L-talopyranosyl)adriamycinone], for which the IC50 in experiment [1] (setting [8]) was less than 0.0098 µg/mL; in experiment [2] it was 0.14 µg/mL (≈ 0.185 µM).

For the molecule `COc1cccc2c1C(=O)c1c(O)c3c(c(O)c1C2=O)C[C@@](O)(C(=O)CO)C[C@@H]3O[C@@H]1O[C@@H](C(F)(F)F)[C@@H](OC(=O)[C@@H](N)Cc2ccccc2)[C@@H](OC(=O)[C@@H](N)Cc2ccccc2)[C@H]1F` [Compound 37, 7-O-(2,6-dideoxy-2,6,6,6-tetrafuluoro-3,4-di-O-L-phenylalanyl-α-L-talopyranosyl)adriamycinone], the IC50 in experiment [1] (setting [8]) is 0.016 µg/mL (≈ 0.0176 µM); in experiment [2] it was 0.17 µg/mL (≈ 0.187 µM).

For `COc1cccc2c1C(=O)c1c(O)c3c(c(O)c1C2=O)C[C@@](O)(C(=O)CO)C[C@@H]3O[C@H]1C[C@H](OC(=O)[C@H](C)N)[C@H](OC(=O)[C@H](C)N)[C@H](C(F)(F)F)O1` [Compound 43, 7-O-(3,4-di-O-L-alanyl-2,6-dideoxy-6,6,6-trifluoro-α-L-lyxo-hexopyranosyl)adriamycinone], the IC50 in experiment [1] (P388, 72 h) was less than 0.0098 µg/mL; in experiment [2], 0.22 µg/mL (≈ 0.297 µM).

Consider `COc1cccc2c1C(=O)c1c(O)c3c(c(O)c1C2=O)C[C@@](O)(C(=O)CO)C[C@@H]3O[C@H]1C[C@H](OC(=O)[C@@H](N)Cc2ccccc2)[C@H](OC(=O)[C@@H](N)Cc2ccccc2)[C@H](C(F)(F)F)O1` [Compound 49, 7-O-(2,6-dideoxy-6,6,6-trifluoro-3,4-di-O-L-phenylalanyl-α-L-lyxo-hexopyranosyl)adriamycinone], for which the half-inhibitory concentration (IC50) in experiment [1] (setting [8]) amounted to 0.02 µg/mL (≈ 0.0224 µM); in experiment [2], 0.28 µg/mL (≈ 0.314 µM).

Take `COc1cccc2c1C(=O)c1c(O)c3c(c(O)c1C2=O)C[C@@](O)(C(=O)CO)C[C@@H]3O[C@@H]1O[C@@H](C)[C@@H](O)[C@@H](O)[C@H]1F` [FT-ADM, 7-O-(2,6-dideoxy-2-fluoro-α-L-talopyranosyl)adriamycinone, reference compound]: the “% Increase in life-span (T/C, %)” value in the experiment on Leukemia L-1210 cells (0.15 mg/kg/day i.p.) is reported as 127%; in the experiment on Leukemia L-1210 cells (setting [3]), 182%; in the experiment on Leukemia L-1210 cells (setting [4]), 185%; in the experiment with Leukemia L-1210 cells (setting [5]), 275%; in the experiment on Leukemia L-1210 cells (setting [6]) it was more than 352%; in the experiment with Leukemia L-1210 cells (setting [7]) it was more than 740%. The “mice cured and surviving for 60 days or longer / mice tested” value in the experiment on Leukemia L-1210 cells (2.5 mg/kg/day i.p.) is listed as 1/4; in the experiment with Leukemia L-1210 cells (5 mg/kg/day i.p.), 4/4.

As for `COc1cccc2c1C(=O)c1c(O)c3c(c(O)c1C2=O)C[C@@](O)(C(C)=O)C[C@@H]3O[C@@H]1O[C@@H](C)[C@@H](O)[C@@H](O)[C@H]1F` [FT-DM, 7-O-(2,6-dideoxy-2-fluoro-α-L-talopyranosyl)daunomycinone, reference compound], the “% Increase in life-span (T/C, %)” value with Leukemia L-1210 cells (0.15 mg/kg/day i.p.) is listed as 105%; in the experiment on Leukemia L-1210 cells (setting [4]) it was 125%; in the experiment on Leukemia L-1210 cells (setting [5]), 171%; with Leukemia L-1210 cells (setting [6]), 217%; in the experiment on Leukemia L-1210 cells (setting [7]) it was 184%.
